Tests used:
[1] = Open label comparative pharmacokinetic study of oral teriparatide tablet in healthy volunteers; type: in vivo, human; settings: oral tablet 0.75 mg teriparatide + SNAC + SBTI, with 150 ml of 3 mg/ml sodium bicarbonate solution vs 150 ml water; ten healthy volunteers, fasted; plasma
Experimental: An open label comparative pharmacokinetic study was performed on ten healthy volunteers. On different visits, each volunteer received the same oral tablet containing 0.75 mg of teriparatide, a recombinant form of parathyroid hormone (1-34) (PTH(1-34)). In the first visit, the tablet was administered with 150 ml water, whereas in the second visit the tablet was administered with 150 ml of 3 mg/ml sodium bicarbonate aqueous solution.
The formulation was composed of teriparatide (0.75 mg), SNAC (sodium 8-N-(2-hydroxybenzoyl)aminocaprylate), soybean trypsin inhibitor (SBTI) and a small amount of magnesium stearate.
Tablets were administered in the morning after an 8-hour overnight fast. At each visit a standard meal was provided 3 hours after drug administration. […] There was a two week period between the two visits.
To determine PTH(1-34) concentrations, blood samples (4 ml each) were drawn via an indwelling catheter from the forearm vein at predetermined time points during each visit. The cannula was flushed with 1.5 ml normal saline after each sampling. In addition, to avoid sample dilution, 1 ml of blood was drawn and discarded before the next sample. […] PTH(1-34) levels were measured using an IDS-iSYS automated assay for the measurement of intact PTH(1-34) in human plasma or serum. […] Relative absorption was determined based on the AUC (area under curve) parameter.

[2] = Dissolution test: release of SNAC from tablet formulations in simulated gastric buffer; type: physicochemical; settings: tablet with 100 mg sodium bicarbonate vs tablet without, trypsin inhibitor, teriparatide, 100 ml simulated gastric buffer without pepsin, pH 2.0, 37° C., USP 23 Apparatus 2, 50 rpm
Experimental: The tablets were in a form of a homogeneous mixture.
Each tablet formulation was subjected to a dissolution test in 100 ml of simulated gastric buffer (without pepsin), pH 2.0, at 37° C., according to USP 23 Apparatus 2 (paddle) with 50 rotations per minute. The amount of released SNAC in each sample was determined chromatographically, using an HPLC apparatus with Cosmosil™ 5 C18-MS-II (4.6 ID×250 mm) column. Mobile phase consisted of 50% acetonitrile and 50% phosphoric acid solution (0.1%). Flow rate was 1 ml/minute and injection volume was 25 μl. Amount of released SNAC was calculated as a percentage of the amount of SNAC in the formulation.

Structure (SMILES): CC[C@H](C)[C@H](NC(=O)[C@H](CCC(=O)O)NC(=O)[C@H](CO)NC(=O)[C@@H](NC(=O)[C@@H](N)CO)C(C)C)C(=O)N[C@@H](CCC(N)=O)C(=O)N[C@@H](CC(C)C)C(=O)N[C@@H](CCSC)C(=O)N[C@@H](Cc1cnc[nH]1)C(=O)N[C@@H](CC(N)=O)C(=O)N[C@@H](CC(C)C)C(=O)NCC(=O)N[C@@H](CCCCN)C(=O)N[C@@H](Cc1cnc[nH]1)C(=O)N[C@@H](CC(C)C)C(=O)N[C@@H](CC(N)=O)C(=O)N[C@@H](CO)C(=O)N[C@@H](CCSC)C(=O)N[C@@H](CCC(=O)O)C(=O)N[C@@H](CCCN=C(N)N)C(=O)N[C@H](C(=O)N[C@@H](CCC(=O)O)C(=O)N[C@@H](Cc1c[nH]c2ccccc12)C(=O)N[C@@H](CC(C)C)C(=O)N[C@@H](CCCN=C(N)N)C(=O)N[C@@H](CCCCN)C(=O)N[C@@H](CCCCN)C(=O)N[C@@H](CC(C)C)C(=O)N[C@@H](CCC(N)=O)C(=O)N[C@@H](CC(=O)O)C(=O)N[C@H](C(=O)N[C@@H](Cc1cnc[nH]1)C(=O)N[C@@H](CC(N)=O)C(=O)N[C@@H](Cc1ccccc1)C(=O)O)C(C)C)C(C)C [PTH(1-34), teriparatide]
- increase in absorption of PTH(1-34) (relative absorption based on AUC) [1]: about 35%

Structure (SMILES): O=C(O)CCCCCCCNC(=O)c1ccccc1O [SNAC, sodium 8-N-(2-hydroxybenzoyl)aminocaprylate]
- dissolution of SNAC in tablets (released SNAC as a percentage of the amount of SNAC in the formulation) [2]: considerably enhanced

Reference: patent US12076373B2, “Formulations for oral administration of active agents” (Entera Bio Ltd., priority 2015, dated 2024)
